IC50 data for one compound are collected here from US9981983B2, “Thienopyranones as kinase inhibitors” (SignalRx Pharmaceuticals, Inc., priority 2008, dated 2018).

Molecules are shown by their SMILES. Like-named read-outs stand apart in the source and are kept apart here.

Format in all cases: cell-based
Assay [1] has as its system H1299 (Lung). The assay can be described thus: Cell proliferation MTS assay, H1299. As to conditions: Homo sapiens, NCI-H1299, 72 hours. The protocol: (§1) All cell lines were obtained from ATCC and cultured and plated according to ATCC recommendations. Cells were cultured in complete culture media containing 10% heat-inactivated fetal bovine serum (FBS, Mediatech, Inc.). For adherent cell lines, once cells reached 70% confluency, they were trypsinized and resuspended in phenol red free RPMI media (Mediatech, Inc.) plus 10% heat-inactivated FBS (assay buffer) and 100 μL aliquots were plated into each well of 96-well microtiter plates at a final density of 1,000-2,000 cells/well. Cells were incubated overnight at 37° C. in 5% CO2, and treated with test compounds on the next day. For suspension cell lines, cells were resuspended in assay buffer, plated into 96-well microtiter plates at a density of 10^4-10^5 cells/well/100 μL, and treatment was started on the same day. Cells were treated with vehicle (DMSO) and test compounds for 72 hours at concentration of 100, 70, 40, 20, 10, 5, 2.5, 1.25, 0.5 and 0.2 μM in four replicates at 37° C. in 5% CO2.

Assay [2] has as its system PC3 cells. Description: PC3 prostate cancer cell proliferation (WST). As to conditions: Homo sapiens, PC-3; 72 hours; read-out: IC50 PC3 Proliferation.
The subject of assay [3] is SKMEL2 (Melanoma). Description: Cell proliferation MTS assay, SKMEL2. To be noted: Homo sapiens, SK-MEL-2, 72 hours. The protocol:
as §1
(Tetrazolium dyes change colour on reduction, which living cells bring about.)

Assay [4] deals with Panc-1 (Pancreas). Description: Cell proliferation MTS assay, Panc-1. To be noted: Homo sapiens, 72 hours. The protocol:
as §1

The subject of assay [5] is HUVEC (Endothelial-noncancer). The assay can be described thus: Cell proliferation MTS assay, HUVEC. To be noted: Homo sapiens, 72 hours. As for the experimental part:
as §1

For assay [6], the system named is PC3 (Prostate). The assay can be described thus: Cell proliferation MTS assay, PC3. As to conditions: 72 hours. As for the experimental part:
as §1

Assay [7] concerns AKT Ser473 phosphorylation in renal cell carcinoma (786-O) Cell Line. Description: pAKT Ser473 ELISA in 786-O cells stimulated by Bv8, VEGF, IGF. To be noted: Homo sapiens, 786-0, 786-O, read-out: Concentration Required to Inhibit pAKT to Half-maximal Levels. The protocol: (§2) This was followed by the addition of IGF, VEGF and Bv8 to 0.1 μg/mL, 0.1 μg/mL and 2.5 μg/mL respectively for another 30 minutes before harvesting the cells and making cell lysates with RIPA buffer keeping on ice, pAKT levels were measured in duplicate samples with Cell Signaling's Ser473 pAKT ELISA kit. Optical density plate readings of pAKT levels were made at 450 nm (OD450 nm) and were normalized by total protein amount of the cell lysates. The dose of compound at which pAKT levels are reduced to 50% of the non-treatment level was calculated using GraphPad Prism4 software and is listed in Tables 4 and 5 below.
(In an ELISA, binding on a coated surface is turned into a signal by an enzyme label.)

A short description of assay [8]: Cell proliferation MTS assay, Hela. To be noted: Homo sapiens, 72 hours, read-out: IC50 Hela (Colon). The protocol:
as §1

In assay [9] the test system is A549 (Lung). Description: Cell proliferation MTS assay, A549. To be noted: Homo sapiens, 72 hours. The protocol:
as §1

The subject of assay [10] is MCF7 (Breast). Description: Cell proliferation MTS assay, MCF7. To be noted: Homo sapiens, 72 hours. The protocol:
as §1

The subject of assay [11] is AKT Ser473 phosphorylation in PC3 (prostate cancer) Cell Line. Description: pAKT Ser473 ELISA in PC3 cells stimulated by Bv8, VEGF, IGF. As to conditions: Homo sapiens, PC-3, PC3, read-out: Concentration Required to Inhibit pAKT to Half-maximal Levels. As for the experimental part:
as §2

On to `O=c1cc(N2CCOCC2)oc2c(-c3ccc4c(c3)OCCO4)csc12` [Compound 28, 3-(2,3-dihydrobenzo[b][1,4]dioxin-6-yl)-5-morpholino-7H-thieno[3,2-b]pyran-7-one], for which the IC50 in [1] is 2430 nM; in [2], 1300 to 1910 nM; in assay [3], 5200 nM; in assay [4] it was 18400 nM; in [5] it was 1230 nM; in assay [6], 1220 nM. Moreover, the IC50 in [7] (stimulant Bv8) was 380 nM; in assay [7] (stimulant IGF), 2600 nM; in [7] (stimulant PBS), 541 nM; in [7] (stimulant VEGF), 343 nM; in assay [8], 2100 nM; in assay [9] it was 2540 nM. Further, the IC50 is 2270 nM in assay [10]; 116 nM in [11] (stimulant Bv8); 888 nM in [11] (stimulant IGF); 229 nM in assay [11] (stimulant PBS); 152 nM in [11] (stimulant VEGF).
